Results from ChEMBL document CHEMBL5584244, “Discovery of novel pyrrolo[2,1-c][1,4]benzodiazepine-3,11-dione (PBD) derivatives as selective HDAC6 inhibitors for the efficient treatment of idiopathic pulmonary fibrosis (IPF) in vitro and in vivo” (Eur J Med Chem, 2024).
The source made the active and inactive calls. The rule behind the calls is not given here.

Assays:
[1] = Cytotoxicity against HELF cells assessed as reduction in viability at 10 uM after 48 hrs by MTT assay; type: toxicity, cell-based; conditions: human
[2] = Cytotoxicity against HELF cells assessed as reduction in viability at 1 to 300 uM after 48 hrs under without FBS condition by MTT assay; type: toxicity, cell-based; conditions: human, dose 1-300 µM
[3] = test system: HELF; assay: Antifibrotic activity against TGF-beta1-induced HELF cells assessed as reduction in viability at 10 uM after 48 hrs by MTT assay; type: functional, cell-based; conditions: Homo sapiens
[4] = species on record: Homo sapiens; assay: Selectivity index, ratio IC50 inhibition of human HDAC1 to IC50 for inhibition of human HDAC6 using Ac-Lys (Ac)-AMC as substrate
[5] = molecular target: T1, Protein deacetylase HDAC6 (Homo sapiens, UniProt Q9UBN7); assay: Inhibition of recombinant human full length HDAC6 using Boc-Lys (Ac)-AMC as substrate incubated for 120 mins by fluorescence analysis
T1 sequence (Q9UBN7 whole entry): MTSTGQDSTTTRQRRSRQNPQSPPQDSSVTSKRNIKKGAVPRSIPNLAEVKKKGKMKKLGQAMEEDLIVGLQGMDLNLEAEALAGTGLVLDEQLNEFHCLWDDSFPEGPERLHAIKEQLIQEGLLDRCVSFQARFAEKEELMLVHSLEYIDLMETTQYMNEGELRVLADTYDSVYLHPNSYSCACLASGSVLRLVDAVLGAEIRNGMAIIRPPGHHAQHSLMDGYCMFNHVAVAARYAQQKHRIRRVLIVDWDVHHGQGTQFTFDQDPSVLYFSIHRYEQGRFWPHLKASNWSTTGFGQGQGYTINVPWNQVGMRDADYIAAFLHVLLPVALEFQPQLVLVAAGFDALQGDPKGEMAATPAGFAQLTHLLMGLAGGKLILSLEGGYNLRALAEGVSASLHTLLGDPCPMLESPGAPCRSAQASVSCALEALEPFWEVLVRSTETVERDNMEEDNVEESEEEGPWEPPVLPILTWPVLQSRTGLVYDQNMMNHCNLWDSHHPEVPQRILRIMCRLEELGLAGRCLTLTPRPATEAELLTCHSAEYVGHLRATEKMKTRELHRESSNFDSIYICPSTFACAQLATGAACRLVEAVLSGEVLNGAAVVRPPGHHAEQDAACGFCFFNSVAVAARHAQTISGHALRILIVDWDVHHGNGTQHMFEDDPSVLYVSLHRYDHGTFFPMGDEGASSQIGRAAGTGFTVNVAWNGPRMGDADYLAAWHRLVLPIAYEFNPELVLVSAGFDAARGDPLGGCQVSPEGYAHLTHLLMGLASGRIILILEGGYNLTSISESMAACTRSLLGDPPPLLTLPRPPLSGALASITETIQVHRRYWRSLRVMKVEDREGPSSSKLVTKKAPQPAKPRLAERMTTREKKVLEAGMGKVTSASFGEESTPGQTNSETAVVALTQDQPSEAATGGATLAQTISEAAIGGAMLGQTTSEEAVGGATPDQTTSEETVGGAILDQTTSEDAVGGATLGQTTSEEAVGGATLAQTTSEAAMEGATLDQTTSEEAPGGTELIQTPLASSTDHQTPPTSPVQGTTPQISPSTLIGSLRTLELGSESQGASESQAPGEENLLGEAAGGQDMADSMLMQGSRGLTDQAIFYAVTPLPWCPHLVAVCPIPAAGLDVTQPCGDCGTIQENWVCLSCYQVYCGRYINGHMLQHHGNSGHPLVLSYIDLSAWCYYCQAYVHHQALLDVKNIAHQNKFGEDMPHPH

[6] = molecular target: T1, Protein deacetylase HDAC6; assay: Inhibition of human HDAC6 using Ac-Lys (Ac)-AMC as substrate incubated for 120 mins by fluorescence analysis
[7] = molecular target: Histone deacetylase 1 (Homo sapiens, UniProt Q13547); assay: Inhibition of human HDAC1 incubated for 10 mins and measured after 30 mins by ELISA
Chain of Histone deacetylase 1 (Q13547 whole entry): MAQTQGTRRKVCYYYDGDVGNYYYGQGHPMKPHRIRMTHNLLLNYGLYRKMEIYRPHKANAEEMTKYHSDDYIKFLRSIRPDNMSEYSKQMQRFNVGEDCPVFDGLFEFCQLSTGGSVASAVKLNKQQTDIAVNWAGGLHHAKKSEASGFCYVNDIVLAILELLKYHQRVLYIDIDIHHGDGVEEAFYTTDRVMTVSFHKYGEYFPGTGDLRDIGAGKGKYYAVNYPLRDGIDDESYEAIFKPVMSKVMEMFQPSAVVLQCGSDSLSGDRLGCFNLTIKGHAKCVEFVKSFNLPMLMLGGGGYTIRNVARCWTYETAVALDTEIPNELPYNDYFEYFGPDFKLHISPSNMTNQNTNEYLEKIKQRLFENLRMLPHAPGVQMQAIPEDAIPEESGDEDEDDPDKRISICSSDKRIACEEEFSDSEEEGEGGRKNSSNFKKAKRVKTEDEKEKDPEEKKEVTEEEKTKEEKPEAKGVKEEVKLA

Ratio IC50 [4] | IC50 [5] [nM] | IC50 [6] [nM] | IC50 [7] [nM] | SMILES | Activity [1] | Activity [2] | Activity [3]
 |  |  |  | CN1CCc2c(c3ccccc3n2Cc2ccc(C(=O)NO)cc2)C1 [TUBASTATIN A] | Non-Toxic | Toxic | Active
36.8 | 12.5 | 21.4 | 789 | O=C(CCCCCCCN1C(=O)[C@@H]2CCC(=O)N2Cc2ccccc21)NO |  |  | 
